Experimental data published in article doi:10.1101/2022.06.14.496144v1, “Crystal structure and functional peculiarities of a primordial Orange Carotenoid Protein (OCPX)” (biorxiv, 2022).
Substitutions are numbered along the chain they refer to.

Experiments:
Type in all cases: binding
GlOCPX [1] = target: T1, GlOCPX (Gloeobacter kilaueensis, UniProt U5QHX0, E25A); experiment: X-ray crystal structure, […] Å; settings: between NTD and CTD; pH 6.5 crystals
T1 construct: gene GKIL_2275; full length M1-R322, codon-optimised, E. coli C41(DE3) making ECH or CAN, His tag cut by 3C leaving N-terminal GPH
T1 sequence (U5QHX0 1-322 E25A): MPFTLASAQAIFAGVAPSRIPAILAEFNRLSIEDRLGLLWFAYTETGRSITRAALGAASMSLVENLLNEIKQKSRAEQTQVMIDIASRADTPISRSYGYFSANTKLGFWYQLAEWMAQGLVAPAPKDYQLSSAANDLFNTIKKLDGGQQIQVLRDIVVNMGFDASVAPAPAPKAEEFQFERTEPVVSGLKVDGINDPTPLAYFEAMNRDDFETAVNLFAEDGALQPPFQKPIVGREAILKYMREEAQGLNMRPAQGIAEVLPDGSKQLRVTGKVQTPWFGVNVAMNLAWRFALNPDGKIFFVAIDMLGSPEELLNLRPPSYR

GlOCPX [2] = target: T2, GlOCPX (Gloeobacter kilaueensis, UniProt U5QHX0); experiment: co-purified holoprotein, SEC with absorbance spectra, photocycle; settings: pH 7.6; ECH-producing E. coli
T2 construct: gene GKIL_2275; full length M1-R322, codon-optimised, E. coli C41(DE3) making ECH or CAN, His tag cut by 3C leaving N-terminal GPH
T2 sequence (U5QHX0 1-322): T1 sequence (U5QHX0 1-322 E25A) with A25E

ΔNTE-GlOCPX = target: T3, ΔNTE-GlOCPX (Gloeobacter kilaueensis, UniProt U5QHX0); experiment: co-purified holoprotein, absorbance, photocycle; settings: pH 7.6; ECH-producing E. coli
T3 construct: gene GKIL_2275; N-terminal extension M1-P17 removed, E. coli C41(DE3) making ECH, His-3C tag
T3 sequence (U5QHX0 18-322): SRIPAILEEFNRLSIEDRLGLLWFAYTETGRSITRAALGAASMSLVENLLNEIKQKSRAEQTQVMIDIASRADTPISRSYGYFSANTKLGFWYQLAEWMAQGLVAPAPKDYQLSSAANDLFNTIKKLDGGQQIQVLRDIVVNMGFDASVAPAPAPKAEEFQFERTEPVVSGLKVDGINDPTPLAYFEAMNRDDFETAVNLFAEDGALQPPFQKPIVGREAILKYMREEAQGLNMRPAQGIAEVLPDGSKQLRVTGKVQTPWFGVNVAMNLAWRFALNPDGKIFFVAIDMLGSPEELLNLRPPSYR

CC1=C(/C=C/C(C)=C/C=C/C(C)=C/C=C/C=C(C)/C=C/C=C(C)/C=C/C2=C(C)C(=O)CCC2(C)C)C(C)(C)CCC1 [ECH, echinenone]
X-ray crystal structure, 1.7 Å (GlOCPX [1]): A well-defined density revealed that the GlOCPX-embedded carotenoid is echinenone (ECH) | co-purified holoprotein, SEC with absorbance spectra, photocycle (GlOCPX [2]): produced GlOCPX in Escherichia coli strains synthesizing ketocarotenoids canthaxanthin (CAN) or echinenone (ECH) | co-purified holoprotein, absorbance, photocycle (ΔNTE-GlOCPX): All samples uniformly contained ECH as a cofactor
